Measurements from patent USRE38167E1, “Weight reduction method for cats and other pets” (International Flora Technologies Ltd, priority 1996, dated 2003).

Assay: Cat free-choice feeding study: daily food intake
Assay type: in vivo
Details: overweight cats
Protocol: All feeding studies were conducted from Feb. 26, 1998 to Sep. 17, 1998 at Summit Ridge Farms, Susquehanna, Pa. All were adult domestic short-haired cats. Most were quite old, as they had been in the colony 3 to 14 years and were thought to have been 1 to 4 years of age when they were obtained (Table 11). Just before beginning the study, all cats were given a thorough physical examination by a veterinarian. […] Each cat's current and estimated optimum weight were determined during this exam. […] All cats were housed individually with 12 hr light and dark cycles, and at a temperature of 60 to 85° F. and humidity of 30 to 70%. Food bowls, water bowls and litter boxes were emptied and sanitized daily. Water and the diet being fed were always available for free choice consumption except the night before the cats were to be weighed, when food bowls were removed. The amount of diet consumed was recorded, diet uneaten discarded and fresh diet fed daily. Weekly, following an overnight (14-hr) fast, each cat was weighed. Each cat was initially fed the non-jojoba containing diet FC-0 for 4 weeks, or until it was 14% or more over its estimated optimum weight, at which time it was fed either the diet containing 4% (FC-2) or 8% (FC-3) jojoba. Cats whose weight decreased by more than 4.6% in 1 week, or 6% in 2 weeks, were changed to the next lower jojoba-containing diet. […] When a cat was within 2.0% of its optimum weight, it was changed to a lower jojoba-containing diet; either that containing 2% or 4% (FC-1 or FC-2). If optimum body weight wasn't maintained when this diet was fed, the cat was changed to a higher jojoba-containing diet if it had gained weight and a lower jojoba-containing diet if it had lost weight. When the cat's weight had been maintained within 4% of its optimum for 4 weeks while eating the same diet, it was given a thorough physical exam by a veterinarian and removed from the study.

## CO[C@H]1[C@@H](OC)C[C@@H](O[C@@H]2O[C@H](CO)[C@@H](O)[C@H](O)[C@H]2O)/C(=C\C#N)[C@@H]1O [Simmondsin, simmondsin]
0.12% bioactive simmondsin activity in diet
  Percent Decrease in Food Intake: 17.8%
0.24% bioactive simmondsin activity in diet
  Percent Decrease in Food Intake: 30.7%
0.49% bioactive simmondsin activity in diet
  Percent Decrease in Food Intake: 45.9%
0.73% bioactive simmondsin activity in diet
  Percent Decrease in Food Intake: 49.2%
